Consider one molecule from patent US12616696B2, “Crystalline forms of (p)-3-chloro-4-((3,5-difluoropyridin-2-yl)methoxy)-2′-(2-(2-hydroxypropan-2-yl)pyrimidin-4-yl)-5′,6-dimethyl-2h-[1,4′-bipyridin]-2-one” (ACLARIS THERAPEUTICS, INC., priority 2020, dated 2026).

The nature of one data set: in vitro. The following applies: 50 mg, Tmax (time interval where BAmax is recorded). The method, then:
Test System: The study was performed in the TNO dynamic, multi-compartmental in vitro system of the stomach and small intestine (tiny-TIM). The tiny-TIM system consists of a gastric compartment and one small intestinal compartment (FIG. 8). This compartment is composed of two glass units with a flexible silicone inner wall enclosing the luminal material. The space between the inner and outer walls is filled with water. Peristaltic mixing of the chyme is the result of alternate compression and relaxation of the flexible inner wall. The compartments are connected by peristaltic valve pumps that successively open and close, allowing the chyme to transit over time through the compartments. […] The set-points for gastrointestinal simulation are controlled and monitored by specific computer programs. […]
Filtration of released and dissolved/solubilized drug molecules from the intestinal lumen via a semi-permeable membrane unit (Fresenius plasmaFlux® P1dry) allowed the assessment of the so-called bio-accessible fraction, i.e. the fraction of the drug which is available for small intestinal absorption. […] The collected volume per time period was measured and sub-samples were taken, instantly diluted in 50% Acetonitrile in Milli-q water and stored at 2-10° C., protected from light, until analysis.

In a further data set the test system is phospho-HSP27. Nature of the data set: Phosphoprotein analysis in PMA-differentiated U937 cells: phospho-Hsp27/total Hsp27. The following applies: Homo sapiens, U-937, read-out: pHSP27/Total HSP27 IC50. It counts as cell-based. The method, then: (§1) The JNK pathway leads to increased inflammation by boosting production of inflammatory cytokines. […] Classical p38 inhibitors block the phosphorylation of downstream substrates of p38 while elevating activity of parallel pathways such as JNK. Evaluation of the impact of different classes of p38 inhibitors on p38 and JNK pathway regulation was carried out using phospho-HSP27 and phosphor-JNK for the two pathways, respectively. Evaluation of the potency and efficacy of p38 inhibitors to impact phosphoprotein levels was carried out using the human U937 cell line. The U937 human pre-monocytic cell line was obtained from the American Type Culture Collection (Rockville, MD). These cells were differentiated to a monocytic/macrophage phenotype as described by Burnette (Burnette et al, (2009). SD0006: a potent, selective and orally available inhibitor of p38 MAP Kinase, Pharmacology 84(1):42-60). Suspension cells (approximately 0.5 million per milliliter in T75 cm^2 tissue culture flasks) were grown in RPMI containing 10% fetal bovine serum (FBS) plus antibiotics. On day one, phorbol 12-myristate 13-acetate (PMA, 20 ng/mL) was added to the culture flask and the cells were incubated overnight at 37° C./5% CO2. The cells were washed on day two by centrifuging and resuspending them in fresh media without PMA. […]

The next data set has as its system phospho-JNK. Description: Phosphoprotein analysis in PMA-differentiated U937 cells: phospho-JNK/total JNK. It counts as cell-based. The following applies: Homo sapiens, U-937, read-out: pJNK/Total JNK EC50. The method, then: as §1
The nature of a further data set: physchem. The following applies: thermodynamic from solid; for solubility: 23 °C; for solubility at 1 h: 40 °C, Solubility at 40° C.

Structures are written as SMILES.

On to `Cc1cnc(-c2ccnc(C(C)(C)O)n2)cc1-n1c(C)cc(OCc2ncc(F)cc2F)c(Cl)c1=O` (atropisomer, axis not shown; (P)) [Compound 49a, (P)-3-chloro-4-((3,5-difluoropyridin-2-yl)methoxy)-2′-(2-(2-hydroxypropan-2-yl)pyrimidin-4-yl)-5′,6-dimethyl-2H-[1,4′-bipyridin]-2-one], for which the Tmax in “in vitro” was in the range of 1 to 1.5 h. For the same molecule, in the data set with phospho-HSP27, the IC50 came to 1.15 nM. Also, the EC50 in the data set with phospho-JNK stood at 117 nM. Also, the solubility in the data set “physchem” (organic solvent or mixture, low solubility at RT) was less than 10000 µg/mL; in “physchem” (water, Solubility at RT), less than 6000 µg/mL. Moreover, the solubility at 1 h in the data set “physchem” (organic solvent or mixture) was greater than 9000 µg/mL; in “physchem” (water), less than 6000 µg/mL.

What is called Tmax is the time from dosing to the highest level. The term solubility denotes how much of the substance goes into solution per volume.
